According to ChEMBL document CHEMBL5724914, “Linking interpersonal differences in gut microbiota composition and drug biotransformation activity” (2024):

Experiments:
[1] = (§1) The drug is tested on Z-021 corresponding to metagenome with ENA study accession number: PRJEB37062 and ENA sample accession number: ERS12561820 for biotransformation under anaerobic condition. The drug concentrations were measured over 9 timepoints collected between 0 and 24 hours of incubation by liquid-chromatography-coupled mass spectrometry (LC–MS); conditions: 2 µM
[2] = (§2) The drug is tested on WLS-370 corresponding to human gut metagenome with ENA study accession number: PRJEB37062 and ENA sample accession number: ERS12561793 for biotransformation under anaerobic condition. The drug concentrations were measured over 9 timepoints collected between 0 and 24 hours of incubation by liquid-chromatography-coupled mass spectrometry (LC–MS); conditions: 2 µM
[3] = human gut metagenome, 24 h, 2 µM
[4] = as §2, with “WLS-082” for “WLS-370”, “ERS12561751” for “ERS12561793”; conditions: 2 µM
[5] = human gut metagenome, 24 h, 2 µM; remark: listed apart in the source
[6] = human gut metagenome, 24 h, 2 µM; remark: listed apart in the source
[7] = as §2, with “Z-003” for “WLS-370”, “pig” for “human”, “ERS12561803” for “ERS12561793”; conditions: 2 µM
[8] = as §1, with “Z-026” for “Z-021”, “ERS12561825” for “ERS12561820”; conditions: 2 µM
[9] = human gut metagenome, 24 h, 2 µM; remark: listed apart in the source
Note: call rule not given here.

Cc1ccc(-c2cc(C(F)(F)F)nn2-c2ccc(S(N)(=O)=O)cc2)cc1 [CELECOXIB]
Bacterial Biotransformation [1]: Compound NOT metabolized | Bacterial Biotransformation [2]: Compound metabolized | Bacterial Biotransformation [3]: Compound metabolized | Bacterial Biotransformation [4]: Compound metabolized | Bacterial Biotransformation [5]: Compound metabolized | Bacterial Biotransformation [6]: Compound metabolized | Bacterial Biotransformation [7]: Compound NOT metabolized | Bacterial Biotransformation [8]: Compound NOT metabolized | Bacterial Biotransformation [9]: Compound NOT metabolized

CCCc1nn(C)c2c(=O)[nH]c(-c3cc(S(=O)(=O)N4CCN(C)CC4)ccc3OCC)nc12.O=C(O)CC(O)(CC(=O)O)C(=O)O [SILDENAFIL CITRATE]
Bacterial Biotransformation [1]: Compound NOT metabolized | Bacterial Biotransformation [2]: Compound NOT metabolized | Bacterial Biotransformation [3]: Compound metabolized | Bacterial Biotransformation [4]: Compound NOT metabolized | Bacterial Biotransformation [5]: Compound NOT metabolized | Bacterial Biotransformation [6]: Compound NOT metabolized | Bacterial Biotransformation [7]: Compound NOT metabolized | Bacterial Biotransformation [8]: Compound NOT metabolized | Bacterial Biotransformation [9]: Compound NOT metabolized

CC(C)c1c(C(=O)Nc2ccccc2)c(-c2ccccc2)c(-c2ccc(F)cc2)n1CC[C@@H](O)C[C@@H](O)CC(=O)O [ATORVASTATIN]
Bacterial Biotransformation [1]: Compound NOT metabolized | Bacterial Biotransformation [2]: Compound metabolized | Bacterial Biotransformation [3]: Compound metabolized | Bacterial Biotransformation [4]: Compound metabolized | Bacterial Biotransformation [5]: Compound metabolized | Bacterial Biotransformation [6]: Compound NOT metabolized | Bacterial Biotransformation [7]: Compound metabolized | Bacterial Biotransformation [8]: Compound NOT metabolized | Bacterial Biotransformation [9]: Compound metabolized

O=C1NCC2(CCN(CCc3ccccc3)CC2)O1 [FENSPIRIDE]
Bacterial Biotransformation [1]: Compound NOT metabolized | Bacterial Biotransformation [2]: Compound NOT metabolized | Bacterial Biotransformation [3]: Compound NOT metabolized | Bacterial Biotransformation [4]: Compound NOT metabolized | Bacterial Biotransformation [5]: Compound NOT metabolized | Bacterial Biotransformation [6]: Compound NOT metabolized | Bacterial Biotransformation [7]: Compound NOT metabolized | Bacterial Biotransformation [8]: Compound NOT metabolized | Bacterial Biotransformation [9]: Compound NOT metabolized

O=C(CCCN1CCC(O)(c2ccc(Cl)cc2)CC1)c1ccc(F)cc1 [HALOPERIDOL]
Bacterial Biotransformation [1]: Compound NOT metabolized | Bacterial Biotransformation [2]: Compound NOT metabolized | Bacterial Biotransformation [3]: Compound NOT metabolized | Bacterial Biotransformation [4]: Compound metabolized | Bacterial Biotransformation [5]: Compound NOT metabolized | Bacterial Biotransformation [6]: Compound NOT metabolized | Bacterial Biotransformation [7]: Compound metabolized | Bacterial Biotransformation [8]: Compound NOT metabolized | Bacterial Biotransformation [9]: Compound NOT metabolized

CN1C(=O)CC(C)(c2ccccc2)C1=O (stereo unspecified) [METHSUXIMIDE]
Bacterial Biotransformation [1]: Compound metabolized | Bacterial Biotransformation [2]: Compound NOT metabolized | Bacterial Biotransformation [3]: Compound NOT metabolized | Bacterial Biotransformation [4]: Compound NOT metabolized | Bacterial Biotransformation [5]: Compound NOT metabolized | Bacterial Biotransformation [6]: Compound NOT metabolized | Bacterial Biotransformation [7]: Compound NOT metabolized | Bacterial Biotransformation [8]: Compound NOT metabolized | Bacterial Biotransformation [9]: Compound NOT metabolized

Cc1cn([C@H]2C[C@H](N=[N+]=[N-])[C@@H](CO)O2)c(=O)[nH]c1=O [ZIDOVUDINE]
Bacterial Biotransformation [1]: Compound NOT metabolized | Bacterial Biotransformation [2]: Compound NOT metabolized | Bacterial Biotransformation [3]: Compound NOT metabolized | Bacterial Biotransformation [4]: Compound NOT metabolized | Bacterial Biotransformation [5]: Compound NOT metabolized | Bacterial Biotransformation [6]: Compound NOT metabolized | Bacterial Biotransformation [7]: Compound NOT metabolized | Bacterial Biotransformation [8]: Compound metabolized | Bacterial Biotransformation [9]: Compound NOT metabolized

COc1cc2c(c(OC)c1OC)-c1ccc(OC)c(=O)cc1[C@@H](NC(C)=O)CC2 [COLCHICINE]
Bacterial Biotransformation [1]: Compound NOT metabolized | Bacterial Biotransformation [2]: Compound NOT metabolized | Bacterial Biotransformation [3]: Compound metabolized | Bacterial Biotransformation [4]: Compound metabolized | Bacterial Biotransformation [5]: Compound metabolized | Bacterial Biotransformation [6]: Compound metabolized | Bacterial Biotransformation [7]: Compound NOT metabolized | Bacterial Biotransformation [8]: Compound NOT metabolized | Bacterial Biotransformation [9]: Compound NOT metabolized

OC(Cn1cncn1)(Cn1cncn1)c1ccc(F)cc1F [FLUCONAZOLE]
Bacterial Biotransformation [1]: Compound metabolized | Bacterial Biotransformation [2]: Compound NOT metabolized | Bacterial Biotransformation [3]: Compound metabolized | Bacterial Biotransformation [4]: Compound metabolized | Bacterial Biotransformation [5]: Compound NOT metabolized | Bacterial Biotransformation [6]: Compound metabolized | Bacterial Biotransformation [7]: Compound metabolized | Bacterial Biotransformation [8]: Compound NOT metabolized | Bacterial Biotransformation [9]: Compound NOT metabolized

CC(C(=O)O)c1ccc2c(c1)Cc1cccnc1O2 (stereo unspecified) [PRANOPROFEN]
Bacterial Biotransformation [1]: Compound metabolized | Bacterial Biotransformation [2]: Compound metabolized | Bacterial Biotransformation [3]: Compound metabolized | Bacterial Biotransformation [4]: Compound metabolized | Bacterial Biotransformation [5]: Compound metabolized | Bacterial Biotransformation [6]: Compound metabolized | Bacterial Biotransformation [7]: Compound metabolized | Bacterial Biotransformation [8]: Compound NOT metabolized | Bacterial Biotransformation [9]: Compound metabolized

CCOc1ccc(NC(C)=O)cc1 [PHENACETIN]
Bacterial Biotransformation [1]: Compound NOT metabolized | Bacterial Biotransformation [2]: Compound NOT metabolized | Bacterial Biotransformation [3]: Compound NOT metabolized | Bacterial Biotransformation [4]: Compound NOT metabolized | Bacterial Biotransformation [5]: Compound NOT metabolized | Bacterial Biotransformation [6]: Compound NOT metabolized | Bacterial Biotransformation [7]: Compound NOT metabolized | Bacterial Biotransformation [8]: Compound NOT metabolized | Bacterial Biotransformation [9]: Compound NOT metabolized

O=c1n(CCCN2CCN(c3cccc(Cl)c3)CC2)nc2ccccn12 [TRAZODONE]
Bacterial Biotransformation [1]: Compound NOT metabolized | Bacterial Biotransformation [2]: Compound metabolized | Bacterial Biotransformation [3]: Compound metabolized | Bacterial Biotransformation [4]: Compound metabolized | Bacterial Biotransformation [5]: Compound NOT metabolized | Bacterial Biotransformation [6]: Compound NOT metabolized | Bacterial Biotransformation [7]: Compound metabolized | Bacterial Biotransformation [8]: Compound NOT metabolized | Bacterial Biotransformation [9]: Compound NOT metabolized

C=CCc1ccccc1OCC(O)CNC(C)C (stereo unspecified) [ALPRENOLOL]
Bacterial Biotransformation [1]: Compound metabolized | Bacterial Biotransformation [2]: Compound NOT metabolized | Bacterial Biotransformation [3]: Compound NOT metabolized | Bacterial Biotransformation [4]: Compound NOT metabolized | Bacterial Biotransformation [5]: Compound NOT metabolized | Bacterial Biotransformation [6]: Compound metabolized | Bacterial Biotransformation [7]: Compound metabolized | Bacterial Biotransformation [8]: Compound metabolized | Bacterial Biotransformation [9]: Compound NOT metabolized

COc1ccc2[nH]c([S+]([O-])Cc3ncc(C)c(OC)c3C)nc2n1 (stereo unspecified) [TENATOPRAZOLE]
Bacterial Biotransformation [1]: Compound NOT metabolized | Bacterial Biotransformation [2]: Compound metabolized | Bacterial Biotransformation [3]: Compound metabolized | Bacterial Biotransformation [4]: Compound metabolized | Bacterial Biotransformation [5]: Compound NOT metabolized | Bacterial Biotransformation [6]: Compound NOT metabolized | Bacterial Biotransformation [7]: Compound metabolized | Bacterial Biotransformation [8]: Compound metabolized | Bacterial Biotransformation [9]: Compound NOT metabolized

CNCCC(Oc1ccc(C(F)(F)F)cc1)c1ccccc1 (stereo unspecified) [FLUOXETINE]
Bacterial Biotransformation [1]: Compound NOT metabolized | Bacterial Biotransformation [2]: Compound metabolized | Bacterial Biotransformation [3]: Compound NOT metabolized | Bacterial Biotransformation [4]: Compound NOT metabolized | Bacterial Biotransformation [5]: Compound NOT metabolized | Bacterial Biotransformation [6]: Compound NOT metabolized | Bacterial Biotransformation [7]: Compound NOT metabolized | Bacterial Biotransformation [8]: Compound NOT metabolized | Bacterial Biotransformation [9]: Compound NOT metabolized

CC[C@H](C)C(=O)O[C@H]1C[C@@H](C)C=C2C=C[C@H](C)[C@H](CC[C@@H]3C[C@@H](O)CC(=O)O3)[C@H]21 [LOVASTATIN]
Bacterial Biotransformation [1]: Compound metabolized | Bacterial Biotransformation [2]: Compound NOT metabolized | Bacterial Biotransformation [3]: Compound metabolized | Bacterial Biotransformation [4]: Compound NOT metabolized | Bacterial Biotransformation [5]: Compound NOT metabolized | Bacterial Biotransformation [6]: Compound NOT metabolized | Bacterial Biotransformation [7]: Compound NOT metabolized | Bacterial Biotransformation [8]: Compound metabolized | Bacterial Biotransformation [9]: Compound NOT metabolized

CCOC(=O)[C@H](CCc1ccccc1)N[C@H]1CCc2ccccc2N(CC(=O)O)C1=O [BENAZEPRIL]
Bacterial Biotransformation [1]: Compound metabolized | Bacterial Biotransformation [2]: Compound metabolized | Bacterial Biotransformation [3]: Compound metabolized | Bacterial Biotransformation [4]: Compound metabolized | Bacterial Biotransformation [5]: Compound metabolized | Bacterial Biotransformation [6]: Compound metabolized | Bacterial Biotransformation [7]: Compound metabolized | Bacterial Biotransformation [8]: Compound metabolized | Bacterial Biotransformation [9]: Compound metabolized

CCCCCOC(=O)Nc1nc(=O)n([C@@H]2O[C@H](C)[C@@H](O)[C@H]2O)cc1F [CAPECITABINE]
Bacterial Biotransformation [1]: Compound metabolized | Bacterial Biotransformation [2]: Compound metabolized | Bacterial Biotransformation [3]: Compound metabolized | Bacterial Biotransformation [4]: Compound metabolized | Bacterial Biotransformation [5]: Compound metabolized | Bacterial Biotransformation [6]: Compound metabolized | Bacterial Biotransformation [7]: Compound metabolized | Bacterial Biotransformation [8]: Compound NOT metabolized | Bacterial Biotransformation [9]: Compound metabolized

CN(C)CC(c1ccc(O)cc1)C1(O)CCCCC1.O=C(O)CCC(=O)O (stereo unspecified) [DESVENLAFAXINE SUCCINATE]
Bacterial Biotransformation [1]: Compound NOT metabolized | Bacterial Biotransformation [2]: Compound NOT metabolized | Bacterial Biotransformation [3]: Compound NOT metabolized | Bacterial Biotransformation [4]: Compound NOT metabolized | Bacterial Biotransformation [5]: Compound NOT metabolized | Bacterial Biotransformation [6]: Compound NOT metabolized | Bacterial Biotransformation [7]: Compound NOT metabolized | Bacterial Biotransformation [8]: Compound NOT metabolized | Bacterial Biotransformation [9]: Compound NOT metabolized
